For one series, the target named is T1, PD-1/PD-L1 interaction (Homo sapiens, UniProt Q9NZQ7).
T1 construct: purchased Cisbio 64ICP01PEG&64ICP01PEH
In words: PD-1/PD-L1 HTRF assay. It counts as biochemical. As to conditions: read-out: IC50, anti-PD-1/PD-L1 potency. For orientation: Time-resolved FRET reads energy transfer from a long-lived donor to a nearby acceptor.

The nature of series [1]: H&E staining of mice organs. The format is in vivo, mouse.
Series [2] is described as follows: Creatine kinase isoenzyme assay. It counts as in vivo, mouse. As to conditions: mice.
In another series the target is T2, murine CXCL12 (Mus musculus, UniProt P40224).
T2 construct: purchased Sino Biological Biotics Inc 50025-MNAE-2
Nature of the series: SPR binding to mCXCL12. Here is the method:
(§1) SPR, ITC, CD assay. […] SPRi assay was carried out using PlexAray HT.

In series [3] the test system is HepG2 cells co-cultured with Jurkat T cells. Nature of the series: HepG2 cell mortality in Jurkat T & HepG2 co-culture model. It counts as cell-based. The conditions noted are these: CCK-8. Here is the method:
Assessment of HepG2 cell mortality rate (Cellular). Firstly, HepG2 cells were stimulated with human IFN-γ (Peprotech, catalog number: 300-02) to express hPD-L1 stably. Jurkat T cells were stimulated with PHA-P (Invivogen, catalog number: inh-phap). Then, HepG2 (5×10^4) and Jurkat T cells (5×10^4) were added to the co-cultured model. […] Finally, the Jurkat T cells were completely removed by washing the supernatant (200 μL) with cold PBS for 4 times. The mortality rate of HepG2 cells was determined by CCK-8 assay (Dojindo, CCK8, 500 test).

Another series concerns B16-F10 melanoma tumors. In words: In vivo efficacy in B16-F10 melanoma model. As to conditions: mouse B16-F10 model. The source says: (§2) In vivo efficacy study in a melanoma model and CT26 tumor model. Protocols for animal experiments (B16-F10 and CT-26 tumor model) were approved by the NIACEC (National Institutional Animal Care & Ethical Committee) at SMU (Southern Medical University). C57BL/6 male mice (6-8 weeks old) were purchased from Liaoning Changsheng Biosciences. Briefly, A total of 2×10^5 B16-F10 melanoma cells or CT26 cells (1×10^6) were inoculated into mouse (in the right flank) according to protocols of tumor transplantation studies in mice. […] Tumor volume was measured with a traceable electronic digital caliper (every 2 days).

The target in a further series is T3, human CXCL12 (Homo sapiens, UniProt P48061).
T3 construct: purchased Sino Biological Biotics Inc 13511-HNCE-2
In words: SPR binding to hCXCL12. Here is the method:
as §1

For series [4], the system named is CXCL12-mediated Ca2+ cellular responses in THP-1 cells. In words: Calcium flux assay in THP-1 cells. The conditions noted are these: spectrofluorometry. It counts as cell-based. Here is the method: Calcium flux assays. THP-1 cells were incubated with Fluo-4AM (Invitrogen, catalog number: F14201) calcium-dependent fluorophore for 0.5 h, washed and resuspended. […] Ca^2+ flux was measured (Ex = 488 nm; Em = 520 nm).
Background: A change in cytosolic calcium serves as a functional read-out for many receptors and channels.

Series [5] has as its system CXCL12-mediated cell migration, THP-1 cells. In words: Transwell chemotaxis test in THP-1 cells. It counts as cell-based.
A short description of series [6]: Pharmacokinetic study in male SD rats. It counts as in vivo, rat. As to conditions: for MRT last: read-out: MRT(0–t); for MRT inf: read-out: MRT(0–∞). Here is the method: Pharmacokinetic Study in Male SD Rats. Male SD rats (300–360 g) were purchased from Liaoning Changsheng Biotechnology Co., Ltd. Diet. […] The mobile phase consisted of a mixture of solvent A (acetonitrile) and solvent B (formic acid/ ultrapure water, 1:1000, v/v). The linear gradient program for the mobile phase was set as follows: 0 min 10% A; 0.5 min 30% A; 1 min 95% A; 2 min 95% A; 2.3 min 10% A. The flow rate of the mobile phase was 0.4 mL/min, and the injection volume was 2 μL. The XEVO TQD triple quadrupole mass spectrometer was equipped with an electrospray ionization (ESI) source; multiple reaction monitoring (MRM) mode was selected for quantitation. The Mass Lynx 4.1 software (Waters Corp.) was used for data acquisition. Mass spectral data were obtained in positive electrospray mode (ESI+) in MRM mode.

Series [7] is described as follows: Serum biochemistry for liver and kidney function. As to conditions: mice. The format is in vivo, mouse.
The test system of series [8] is CT-26 colon syngeneic tumor. In words: In vivo efficacy in CT-26 colon syngeneic tumor model. More on the design: species or system mouse. The conditions noted are these: 75 mg/kg for 17 days.
Description: as §2
Figure. […] Then, sacrificed and tumors weights and volumes were measured. (A) Images of tumors and weight of tumors; (B) changes of body weights of mice during treatment; (C) Individual tumor growth curves over time (D) changes of tumor volume during treatment. *P < 0.05, **P < 0.01, and ****P < 0.0001 (n=3).

Setting [9] is: rat, plasma, iv, I.V. 1 mg/kg, mean ± SD.
[10] abbreviates: rat, plasma, po, P.O. 18 mg/kg, mean ± SD.

Each structure is given as a SMILES string. Like-named read-outs stand apart in the source and are kept apart here.

T1 sequence (Q9NZQ7 19-238 limits assumed): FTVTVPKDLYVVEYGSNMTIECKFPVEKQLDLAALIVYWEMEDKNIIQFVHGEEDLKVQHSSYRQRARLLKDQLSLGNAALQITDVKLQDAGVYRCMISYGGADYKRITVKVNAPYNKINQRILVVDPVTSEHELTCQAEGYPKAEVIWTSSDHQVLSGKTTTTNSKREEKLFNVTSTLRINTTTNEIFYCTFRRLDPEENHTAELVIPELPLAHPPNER
T3 sequence (P48061 22-93): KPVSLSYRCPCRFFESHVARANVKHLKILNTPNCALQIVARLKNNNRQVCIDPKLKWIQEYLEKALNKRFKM
T2 sequence (P40224 22-93): as the sequence (P48061 22-93) above, with V18I, F70L counted along it

Consider `CCOC(=O)COc1cc(OCc2cccc(-c3ccccc3)c2C)c(Cl)cc1CN1CCCCC1C(=O)NCc1ccc(COc2ccc(/C=C/C(=O)c3ccc(OC)cc3)cc2OC)cc1` (centres unmarked) [CP14], for which, on PD-1/PD-L1 interaction, the IC50 is more than 1000 nM.
`COc1ccc(C(=O)/C=C/c2ccc(OCc3ccc(CNC(=O)CCNC(=O)C(C)(C)NCc4cc(Cl)c(OCc5cccc(-c6ccccc6)c5C)cc4OCc4cccc(C#N)c4)cc3)c(OC)c2)cc1` [CP11]: at PD-1/PD-L1 interaction, the IC50 worked out at 870 nM.
On the same count and under the same terms, the value for `COc1ccc(C(=O)/C=C/c2ccc(OCc3ccc(CNC(=O)CCCNC(=O)C4CCCCN4Cc4ccc(OCc5cccc(-c6ccccc6)c5C)c(Br)c4)cc3)c(OC)c2)cc1` (centres unmarked) [CP4] was more than 1000 nM; that for `COc1ccc(C(=O)/C=C/c2ccc(OCc3ccc(CNC(=O)CCNC(=O)C4CCCCN4Cc4ccc(OCc5cccc(-c6ccccc6)c5C)c(Br)c4)cc3)c(OC)c2)cc1` (centres unmarked) [CP5] was more than 1000 nM; that for `COc1ccc(C(=O)/C=C/c2ccc(OCc3ccc(CNC(=O)CCNC(=O)C4CCCCN4Cc4cc(Cl)c(OCc5cccc(-c6ccccc6)c5C)cc4OCc4cccc(C#N)c4)cc3)c(OC)c2)cc1` (centres unmarked) [CP20] was 88.5 nM.
On to `COc1ccc(C(=O)/C=C/c2ccc(OCc3ccc(CNC(=O)CCCNC(=O)C4CCCCN4Cc4cc(Cl)c(OCc5cccc(-c6ccccc6)c5C)cc4OCc4ccc(OC(F)(F)F)cc4)cc3)c(OC)c2)cc1` (centres unmarked) [CP8], for which the IC50 on PD-1/PD-L1 interaction was more than 1000 nM.
On to `COc1ccc(C(=O)/C=C/c2ccc(OCc3ccc(CNC(=O)CCCCNC(=O)C(C)(C)NCc4cc(Cl)c(OCc5cccc(-c6ccccc6)c5C)cc4OCc4cccc(C#N)c4)cc3)c(OC)c2)cc1` [CP12], for which the IC50 at PD-1/PD-L1 interaction is more than 1000 nM.
With `COc1ccc(C(=O)/C=C/c2ccc(OCc3ccc(CNC(=O)C4CCCCN4Cc4cc(Cl)c(OCc5cccc(-c6ccccc6)c5C)cc4OCc4cccc(C#N)c4)cc3)c(OC)c2)cc1` (centres unmarked) [CP17], the melting point – broadly, the temperature, or range, at which the solid turns liquid – is 128.1 to 128.9 °C. The IC50 on PD-1/PD-L1 interaction was found to be 126 nM.
As to `COc1ccc(C(=O)/C=C/c2ccc(OCc3ccc(CNC(=O)C4CCN(C(=O)C5CCCCN5Cc5cc(Cl)c(OCc6cccc(-c7ccccc7)c6C)cc5OCc5ccc(OC(F)(F)F)cc5)CC4)cc3)c(OC)c2)cc1` (centres unmarked) [CP7], the IC50 at PD-1/PD-L1 interaction was more than 1000 nM.
On to `CCOC(=O)COc1cc(OCc2cccc(-c3ccccc3)c2C)c(Cl)cc1CN1CCCCC1C(=O)NCCC(=O)NCc1ccc(COc2ccc(/C=C/C(=O)c3ccc(OC)cc3)cc2OC)cc1` (centres unmarked) [CP13], for which the IC50 at PD-1/PD-L1 interaction was more than 1000 nM.
For the compound `COc1ccc(C(=O)/C=C/c2ccc(OCc3ccc(CNC(=O)CCCCNC(=O)C4CCCCN4Cc4cc(Cl)c(OCc5cccc(-c6ccccc6)c5C)cc4OCc4cccc(C#N)c4)cc3)c(OC)c2)cc1` (centres unmarked) [CP19], the IC50 on PD-1/PD-L1 interaction was more than 1000 nM.
Still for that read-out and setting: the value for `COc1ccc(C(=O)/C=C/c2ccc(OCc3ccc(CNC(=O)CCCNC(=O)C(C)(C)NCc4cc(Cl)c(OCc5cccc(-c6ccccc6)c5C)cc4OCc4cccc(C#N)c4)cc3)c(OC)c2)cc1` [CP9] was 101 nM; that for `COc1ccc(C(=O)/C=C/c2ccc(OCc3ccc(CNC(=O)CCCCNC(=O)C4CCCCN4Cc4ccc(OCc5cccc(-c6ccccc6)c5C)c(Br)c4)cc3)c(OC)c2)cc1` (centres unmarked) [CP1] was more than 1000 nM; that for `CCOC(=O)COc1cc(OCc2cccc(-c3ccccc3)c2C)c(Cl)cc1CN1CCCCC1C(=O)N1CCC(C(=O)NCc2ccc(COc3ccc(/C=C/C(=O)c4ccc(OC)cc4)cc3OC)cc2)CC1` (centres unmarked) [CP15] was more than 1000 nM.
For `COc1ccc(C(=O)/C=C/c2ccc(OCc3ccc(CNC(=O)CCCNC(=O)C4CCCCN4Cc4cc(Cl)c(OCc5cccc(-c6ccccc6)c5C)cc4OCc4cccc(C#N)c4)cc3)c(OC)c2)cc1` (centres unmarked) [CP18], the melting point was 120.1 to 120.9 °C. At PD-1/PD-L1 interaction, the IC50 came out at 107 nM.
`COc1ccc(C(=O)/C=C/c2ccc(OCc3ccc(CNC(=O)C4CCN(C(=O)C5CCCCN5Cc5ccc(OCc6cccc(-c7ccccc7)c6C)c(Br)c5)CC4)cc3)c(OC)c2)cc1` (centres unmarked) [CP3]: the IC50 on PD-1/PD-L1 interaction is more than 1000 nM.
Still for that read-out and setting: the value for `COc1ccc(C(=O)/C=C/c2ccc(OCc3ccc(CNC(=O)C(C)(C)NCc4cc(Cl)c(OCc5cccc(-c6ccccc6)c5C)cc4OCc4cccc(C#N)c4)cc3)c(OC)c2)cc1` [CP10] was more than 1000 nM.
The compound `COc1ccc(C(=O)/C=C/c2ccc(OCc3ccc(CNC(=O)C4CCCCN4Cc4ccc(OCc5cccc(-c6ccccc6)c5C)c(Br)c4)cc3)c(OC)c2)cc1` (centres unmarked) [CP2] gave a melting point of 124.8 to 125.9 °C. Moreover, at PD-1/PD-L1 interaction, the IC50 is more than 1000 nM.
Take `COc1ccc(C(=O)/C=C/c2ccc(OCc3ccc(CNC(=O)C4CCCCN4Cc4cc(Cl)c(OCc5cccc(-c6ccccc6)c5C)cc4OCc4ccc(OC(F)(F)F)cc4)cc3)c(OC)c2)cc1` (centres unmarked) [CP6]: the IC50 on PD-1/PD-L1 interaction is more than 1000 nM.
For the compound `CCOC(=O)COc1cc(OCc2cccc(-c3ccccc3)c2C)c(Cl)cc1CN1CCCCC1C(=O)NCCCC(=O)NCc1ccc(COc2ccc(/C=C/C(=O)c3ccc(OC)cc3)cc2OC)cc1` (centres unmarked) [CP16], on PD-1/PD-L1 interaction, the IC50 is more than 1000 nM.
For the compound `COc1ccc(C(=O)/C=C/c2ccc(OCc3ccc(CNC(=O)C4CCN(C(=O)C5CCCCN5Cc5cc(Cl)c(OCc6cccc(-c7ccccc7)c6C)cc5OCc5cccc(C#N)c5)CC4)cc3)c(OC)c2)cc1` (centres unmarked) [CP21], the “Morphological aberration of organs (H&E staining)” value in [1] is recorded as “no apparent morphological aberration”. Further, the “Cardiotoxicity (creatine kinase isoenzyme assay)” value in [2] is reported as “did not cause cardiotoxicity”. For the same compound, the Kd (as a rule, the equilibrium constant for the complex coming apart) on murine CXCL12 was 76.5 nM. Further, in series [3], the “Death of HepG2 cells” value is recorded as “dose-dependently promoted”. For the same compound, in the series on B16-F10 melanoma tumors, the “Body weights of mice during treatment” value is reported as “did not change markedly”. In addition, the “Tumor weights and volumes” value in the series with B16-F10 melanoma tumors (75 and 125 mg/kg) was “dose-dependently decreased”. The “Tumor growth inhibition (TGI)” value in the series with B16-F10 melanoma tumors (oral 125 mg/kg) turned out to be 58.5%. Also, at human CXCL12, the Kd turned out to be 160 nM. In addition, the CXCL12-induced calcium responses entry in [4] is on record as “dose-dependently inhibited”. Further, in series [5], the CXCL12-mediated cell migration result was “dose-dependently inhibited”. In series [6] (P.O. 18 mg/kg, mean ± SD), this compound came in with a CL of 2347 ± 83.3 mL/min/kg and a Vz of 467.4 ± 184.8 L/kg. Further, in [6] (rat, plasma, iv, I.V. 1 mg/kg), the Tmax (in general, the time at which the peak concentration occurs) was 0.083 h. For the same compound, in series [6] (setting [9]), the AUC(0-inf) (in general, total exposure, with the tail of the curve extrapolated) was 2138 ± 18.3 ng·h/mL; the exposure AUC(0-t) (commonly the area under the concentration-time curve up to a stated or last time point) is 2032 ± 11.4 ng·h/mL; the concentration peaked (Cmax) at 326 ± 58.1 ng/mL; the clearance (usually a measure of how efficiently the substance is removed, as volume per time) was 8.33 mL/min/kg. In addition, in series [6] (setting [9]), the half-life (in general, how long it takes for the measured level to halve) was 12.4 ± 0.3 h; the MRT last was determined as 11.3 ± 0.4 h; the MRT inf turned out to be 14 ± 0.5 h. For the same compound, the Vd in [6] (rat, plasma, iv, I.V. 1 mg/kg, mean ± SD, read-out: Vz) stood at 8.4 ± 0.2 L/kg. In [6] (setting [10]), the AUC(0-inf) came out at 128 ± 4.6 ng·h/mL; the AUC(0-t) turned out to be 128 ± 4.8 ng·h/mL; the highest concentration (Cmax) (in general, the highest concentration seen after dosing) worked out at 20.5 ± 3.1 ng/mL; the time of peak concentration (Tmax) is 6.3 ± 0.8 h. Also, in series [6] (setting [10]), the half-life is 2.2 ± 0.8 h, the MRT last worked out at 5.9 ± 0.2 h and the MRT inf turned out to be 6 ± 0.2 h. The “Hepatotoxicity and nephrotoxicity (serum biochemistry)” value in series [7] was “did not induce hepatotoxicity and nephrotoxicity”. In series [8], the “In vivo antitumor efficacy” value is on record as “similarly high in vivo antitumor efficacy”.
